This test addresses T1, human PPARα receptor (Homo sapiens, UniProt Q07869).
T1 construct: expressed in transfected cells
T1 sequence (Q07869 167-468): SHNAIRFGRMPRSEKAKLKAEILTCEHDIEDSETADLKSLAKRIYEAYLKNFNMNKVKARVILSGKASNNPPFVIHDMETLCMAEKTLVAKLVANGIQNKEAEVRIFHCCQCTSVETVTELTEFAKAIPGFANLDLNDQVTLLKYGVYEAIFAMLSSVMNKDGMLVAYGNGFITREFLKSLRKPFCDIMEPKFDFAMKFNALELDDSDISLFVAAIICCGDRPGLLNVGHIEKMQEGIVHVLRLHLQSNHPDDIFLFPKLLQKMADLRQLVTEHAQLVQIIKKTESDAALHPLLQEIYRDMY
Nature of the test: Cellular transactivation assay (GAL4-PPARα chimera, luciferase reporter). Type of test: cell-based. As to conditions: CHO cells stably expressing GAL4-PPARα chimera (human PPARα ligand binding domain) and luciferase reporter; 6 h stimulation. From the text:
A cellular assay is used to identify activators of the peroxisome proliferator-activated receptor alpha (PPAR-alpha).
Since mammalian cells contain different endogenous nuclear receptors which may complicate an unambiguous interpretation of the results, an established chimera system is used in which the ligand binding domain of the human PPARα receptor is fused to the DNA binding domain of the yeast transcription factor GAL4. The resulting GAL4-PPARα chimera is co-transfected and stably expressed in CHO cells having a reporter construct.
The GAL4-PPARα expression construct contains the ligand binding domain of PPARα (amino acids 167-468) which is PCR-amplified and cloned into the vector pcDNA3.1. This vector already contains the GAL4 DNA binding domain (amino acids 1-147) of the vector pFC2-dbd (Stratagene). The reporter construct, which contains five copies of the GAL4 binding site upstream of a thymidine kinase promoter, expresses firefly luciferase (Photinus pyralis) following activation and binding of GAL4-PPARα.
The day before the test, CHO (Chinese hamster ovary) cells which stably express the GAL4-PPARα chimera described above and the luciferase reporter gene construct are plated in medium (Optimem, GIBCO), 2% activated carbon-purified fetal calf serum (Hyclone), 1.35 mM sodium pyruvate (GIBCO), 0.2% sodium bicarbonate (GIBCO) with 1×10^3 cells in 96-well microtiter plates and kept in a cell incubator (96% atmospheric humidity, 5% v/v CO2, 37° C.). On the day of the test, the substances to be tested are taken up in the medium mentioned above but without added calf serum) and added to the cells. After a stimulation period of 6 h, the luciferase activity is measured using a video camera. The relative light units measured give, as a function of the substance concentration, a sigmoidal stimulation curve. The EC50 values are calculated using the computer programme GraphPad PRISM (Version 3.02).

Where a name gives a salt, the structure may show the parent alone.

As for `Cc1ccc(-c2cc(C(F)(F)F)c(C(=O)O)c(CC(C)C)n2)cc1F` [Example 2, 6-(3-Fluoro-4-methylphenyl)-2-isobutyl-4-(trifluoromethyl)nicotinic acid sodium salt], a half-maximal response (EC50) required 0.011 µM. In the case of `Cc1ccc(-c2cc(C(F)(F)F)c(C(=O)O)c(NC(C)C)n2)cc1F` [Example 7, 6-(3-Fluoro-4-methylphenyl)-2-(isopropylamino)-4-(trifluoromethyl)nicotinic acid] it was 0.083 µM. The value for `O=C(O)c1c(C(F)(F)F)cc(-c2ccc(Cl)cc2)nc1NCC1CC1` [Example 22, 6-(4-Chlorophenyl)-2-[(cyclopropylmethyl)amino]-4-(trifluoromethyl)nicotinic acid] was 0.1 µM.

For the molecule `CCOc1nc(-c2ccc(C)c(F)c2)cc(C(F)(F)F)c1C(=O)O` [Example 34, 2-Ethoxy-6-(3-fluoro-4-methylphenyl)-4-(trifluoromethyl)nicotinic acid], a half-maximal effect (EC50) was put at 0.095 µM. The value for `Cc1ccc(-c2cc(C(F)(F)F)c(C(=O)O)c(OC(C)C3CCCCC3)n2)cc1F` (centres unmarked) [Example 42, 2-(1-Cyclohexylethoxy)-6-(3-fluoro-4-methylphenyl)-4-(trifluoromethyl)nicotinic acid] was 0.12 µM; that for `COCCN(C)c1nc(-c2ccc(C)c(F)c2)cc(C(F)(F)F)c1C(=O)O` [Example 47, 6-(3-Fluoro-4-methylphenyl)-2-[(2-methoxyethyl)(methyl)amino]-4-(trifluoromethyl)nicotinic acid hydrochloride] was 0.18 µM. The value for `CC(C)CCOc1nc(-c2cc(F)cc(F)c2)cc(C(F)(F)F)c1C(=O)O` [Example 49, 6-(3,5-Difluorophenyl)-2-(3-methylbutoxy)-4-(trifluoromethyl)nicotinic acid] was 0.042 µM; that for `CCc1nc(-c2ccc(Cl)cc2)cc(CC(C)C)c1C(=O)O` [Example 51, 6-(4-Chlorophenyl)-2-ethyl-4-isobutyl-nicotinic acid] was 0.024 µM; that for `CC(C)(C)CCOc1nc(-c2ccc(Br)cc2)cc(C(F)(F)F)c1C(=O)O` [Example 67, 6-(4-Bromophenyl)-2-(3,3-dimethylbutoxy)-4-(trifluoromethyl)nicotinic acid] was 0.182 µM. The value for `CCOc1cc(-c2ccc(Cl)cc2)nc(C(C)C)c1C(=O)O` [Example 71, 6-(4-Chlorophenyl)-4-ethoxy-2-(1-methylethyl)nicotinic acid sodium salt] was 0.086 µM; that for `CC(C)Cc1nc(-c2ccc(Cl)cc2)cc(C(F)(F)F)c1C(=O)O` [Example 77, 6-(4-Chlorophenyl)-2-isobutyl-4-(trifluoromethyl)nicotinic acid sodium salt] was 0.013 µM.

(Values after patent US8143411B2, “Substituted 6-phenylnicotinic acids and their use” (Bayer Animal Health GmbH, priority 2007, dated 2012).)
